Drawing on paper PMC6458159, “Mechanisms of redundancy and specificity of the Aspergillus fumigatus Crh transglycosylases” (Nature Communications, 2019), this text covers Km for two substances.

The experiment addresses T1, AfCrh5 (Aspergillus fumigatus, UniProt Q8J0P4).
T1 construct: gene crh5; GST cleaved off by PreScission, N-terminal His6 kept; E. coli BL21(DE3) pLysS
T1 sequence (Q8J0P4 22-275): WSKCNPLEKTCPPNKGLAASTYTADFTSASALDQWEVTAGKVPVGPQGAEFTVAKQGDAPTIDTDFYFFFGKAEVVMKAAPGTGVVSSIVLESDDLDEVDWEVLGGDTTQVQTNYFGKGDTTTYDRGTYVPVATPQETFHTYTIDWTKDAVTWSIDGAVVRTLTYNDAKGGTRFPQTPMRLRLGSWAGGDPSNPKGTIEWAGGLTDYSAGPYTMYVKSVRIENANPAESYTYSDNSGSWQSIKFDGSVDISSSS
In words: fluorescent transglycosylation filter-paper assay. Particulars: acceptor; donor carboxymethyl-chitin; 50 mM citrate pH 4.9, 37 °C; labelled compound. It counts as biochemical. The text has this:
fluorescent transglycosylation filter-paper assay on AfCrh5

Regarding SR-labelled chitopentaose [CH5-SR], the Km is 3.5 ± 0.4 µM.
The figure for SR-labelled laminaripentaose [L5-SR] is 12 ± 3 µM.
